The text below walks through data of EP0105106A2, “Anti-bacterial composition” (DAITO KOEKI KABUSHIKI KAISHA, priority 1982, dated 1984).

The subject of one assay is Escherichia coli NIHJ. The assay can be described thus: Survival of mice infected with Escherichia coli. Type of assay: in vivo, ICR mice (male). The settings on record: in 28 hours; dosage of SMX of 5 or 10 mg in two hours after the infection. The text has this:
A strain of Escherichia coli NIHJ is floated in physiologic saline, and a mixture solution containing the strain of Escherichia coli NINJ and 4% mucin, being equal in absorbance to each other is produced. ICR mice (male) were fed with […] this mixture solution containing the bacteria. As the result, all examples of the mice infected with the strain of Escherichia coli (intra Peritoneal administration of 5 ~ 10 times LDso in mice) died in twelve hours (The first contrast group). Subsequently, 80 m 90% of the group of mice on the dosage of SMX of 5 or 10 mg in two hours after the infection were still alive in 24 hours. The rate of survival of the group of mice decreased to 10 ~ 20% in 28 hours.

The test system of assay [1] is Staphylococcus aureus 209P. Description: Anti-bacterial test, Chequer board method. Type of assay: cell-based. The protocol:
Tests for anti-bacterial properties were conducted on compositions of the sample of chitosan and SMX, mixed according to the mixing ratios shown in Tables 1 through 3, respectively.
As strains to be tested, there are used Staphylococcus aureus 209P (a typical example of Gram positive bacteria), Escherichia coli NIHJ (a typical example of Gram negative bacteria) and Pseudomonas aeruginosa 3456.
The combined effects obtained by the present tests were determined in accordance with the Chequer board method with reference to the knowledges of Bushby et al (Bushby, S.R.M. & G.H. Hitchings: Trimethoprim. a sulfonamide potentiator. Brit. J. pharm. Chemother 33: 72 ~ 90, 1968) and Bohni et al (Bohni. E: Vergleichende bakteriologishe Untersuchungen mit der Kombination Trimethoprim/Sulfamethoxazol in vitro und in vivo. Chemotherapy. Suppl ad. 14: 1 21, 1969), both of whom reporting the combined effect between sulfamethoxazole (SMX) and trimethoprim (TMP), both of which are noted on the market at present. The results of the tests are shown in Table 1 through 3, respectively.

As to `Cc1cc(NS(=O)(=O)c2ccc(N)cc2)no1` [SMX, sulfamethoxazol], in the assay with Escherichia coli NIHJ, the rate of survival was 10 ~ 20%. Moreover, the MIC in assay [1] (Staphylococcus aureus, 209P, SMX solely used, in a test tube, read-out: minimum inhibition concentration (MIC) of SMX) stood at 50 µg/mL. Moreover, the “MIC of SMX” value in assay [1] (chitosan added at a rate of 2.5 µg/mℓ) amounted to 3.1 µg/mL. Besides, the “anti-bacterial action is increased” value in assay [1] (chitosan added at a rate of 2.5 µg/mℓ, versus SMX solely used) is listed as “about 16 times SMX”.
